Earlier results on three molecules are cited in patent US7956061B2, “Bicyclic pyrimidines as dipeptidyl peptidase-IV inhibitors for the treatment or prevention of diabetes” (Merck Sharp & Dohme Corp., priority 2005, dated 2011).

For one series, the system named is cardiac allograft. As to conditions: rats; Transplantation, 63: 1495-1500 (1997).
Another series deals with hematopoiesis. As to conditions: mouse, cyclophosphamide-induced neutropenia; WO 99/56753.
The next series has as its target T1, DPP-IV (Homo sapiens, UniProt P27487).
T1 construct: GRF is rapidly degraded in plasma to GRF[3-44]
As to conditions: plasma.

T1 sequence (P27487 39-766 limits assumed, species assumed): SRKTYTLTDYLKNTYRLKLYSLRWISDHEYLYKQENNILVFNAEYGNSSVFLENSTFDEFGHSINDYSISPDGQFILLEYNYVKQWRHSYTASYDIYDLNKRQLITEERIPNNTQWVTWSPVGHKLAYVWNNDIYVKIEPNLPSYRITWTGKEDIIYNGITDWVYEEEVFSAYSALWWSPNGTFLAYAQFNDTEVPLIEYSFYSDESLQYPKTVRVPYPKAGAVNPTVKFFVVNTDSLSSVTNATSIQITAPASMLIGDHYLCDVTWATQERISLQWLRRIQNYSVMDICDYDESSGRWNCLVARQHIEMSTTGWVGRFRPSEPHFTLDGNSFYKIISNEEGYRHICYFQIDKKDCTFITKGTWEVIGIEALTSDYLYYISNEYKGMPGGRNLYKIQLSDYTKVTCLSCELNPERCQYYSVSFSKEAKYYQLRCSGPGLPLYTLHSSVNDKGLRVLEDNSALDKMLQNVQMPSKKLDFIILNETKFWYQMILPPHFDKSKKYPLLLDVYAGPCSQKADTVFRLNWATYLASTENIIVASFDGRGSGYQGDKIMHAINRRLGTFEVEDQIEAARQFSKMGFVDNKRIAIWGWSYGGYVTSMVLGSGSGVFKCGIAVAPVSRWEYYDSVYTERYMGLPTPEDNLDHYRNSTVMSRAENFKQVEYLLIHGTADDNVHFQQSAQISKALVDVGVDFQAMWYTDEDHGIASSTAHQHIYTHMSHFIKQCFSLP

With `CC(C)N1CCC(c2ccccc2)(c2ccccc2)CC1` [Prodipine, Pro-Pro-diphenyl-phosphonate], the cardiac allograft survival result in the series on cardiac allograft is given as “double cardiac allograft survival in rats from day 7 to day 14”.

Regarding `CC(C)[C@H](N)C(=O)N1CCC[C@H]1B(O)O` [Val-Boro-Pro], the effect on hematopoiesis result in the series with hematopoiesis is reported as “stimulated hematopoiesis”.

Consider diprotin A, for which, on DPP-IV, the “effect on degradation of GRF to GRF[3-44]” value is on record as “prevented”.
